Experimental data: US20050239143A1, “Immunocapture-based measurements of mammalian pyruvate dehydrogenase complex” (priority 2002, published 2005)
Entries after “also recorded” stand apart in the source; their conditions may differ.

What was measured:
[1] = test system: T1, immunocaptured human heart PDH complex; assay: Immunocapture microplate PDH activity assay (NADH production) with known inhibitors and activators; assay type: biochemical; details: agent added to wells with already immunocaptured PDH; unmodified human heart PDH control = 100%
T1 construct: tissue Analytic Biological Services, Inc; host or cells: human heart mitochondria, lauryl maltoside solubilized, captured on anti-E2 mAb plates
Protocol: FIG. 3 is a graph summarizing the results of tests for specific inhibition and activation of immunocaptured PDH activity. Known inhibitors and activators as shown were added directly to wells of microtiter plates and incubated with already immunocaptured PDH. Activity of the complex was monitored by measuring production of NADH per min/mg mitochondrial protein. Unmodified activity of human heart PDH (control) was set to 100%.
96-well ELISA plates (Falcon Probind) were coated with Goat-anti-mouse IgG Fc specific antibody (0.5 μg/well) in PBS buffer overnight at 4° C. After 3 washings, wells were coated with monoclonal anti-PDH-E2 subunit at 0.5 μg/well and incubated for 1-2 hours at room temperature. The wells were washed 3-4 times and covered with a 0.5% bovine serum albumin solution for 1 hour to minimize non-specific protein binding to the wells. After blocking, wells were washed 5 times and 100 μl of solubilized mitochondria applied and incubated in the wells at room temperature for 1 hour. After incubation, the supernatant was collected and reapplied to a second antibody-covered plate to test for residual activity.
100 μl/well of the reaction mixture (50 mM Tris, pH 7.5; 2 mM β-NAD+, 225 μM TPP, 2 mM pyruvate, 150 μM Coenzyme A, 2.6 mM cysteine, 1 mM MgCl2) was applied and NADH production was monitored either spectrophotometrically at […] or by measuring fluorescence in the presence of 15 μM resazurin and 0.5 U/ml diaphorase using an excitation wavelength of 530 nm and an emission wavelength of 590 nm for up to […]. […] Activity was calculated as nMol NADH/min/mg of mitochondrial protein.
Monoclonal anti-E2 antibodies were attached to 96-well microplates to which had been prebound goat anti-mouse IgG Fc mAbs, as described in Materials and Methods. […] Unbound protein was removed by extensive washings and NADH production then measured by the increase of absorbance at 340 nm or by coupled fluorescence assay, in the presence of NAD+, pyruvate, CoA, TPP, MgCl2, and cysteine as a reducing agent in 50 mM Tris-HCl buffer pH 7.8. […]

[2] = test system: E1α subunit of immunoprecipitated PDH complex; assay: 2D-gel isoelectric focusing and Western blot with E1α-specific mAb to follow phosphorylation of immunoprecipitated PDH; details: pH gradient 10 to 3; compared with untreated enzyme

Row | SMILES | Increase of PDH activity [1] | Inhibition of immunocaptured PDH activity [1] | Level of phosphorylation of E1α (isoelectric point shift) [2]
1 | O=C(O)C(Cl)Cl [Dichloroacetate] | 34% | – | –
2 | Nc1ncnc2c1ncn2[C@@H]1O[C@H](COP(=O)(O)OP(=O)(O)OP(=O)(O)O)[C@@H](O)[C@H]1O [ATP] | – | about 70% | greatly increased the level of phosphorylation; also recorded: increases the phosphorylation patterns of E1α
3 | O=[As]O [sodium arsenite] | – | > 98% | –
